Laboratory results from US7897563B2, “Use of oligomers and polymers for drug solubilization, stabilization, and delivery” (Soane Family Trust, priority 2001, dated 2011).

What was measured:
[1] = octanol/water, nominal temperature of 25 C; from table in CRC Handbook of Chemistry and Physics; cited from earlier work
[2] = Protocol: Log P values measure the partitioning of a molecule between an octanol-rich and a water-rich layer in contact with one another (see CRC Handbook of Chemistry and Physics, 79th edition, Lide, ed., pp. 16-42-16-46, CRC Press, 1998; and references within, all of which are incorporated herein by reference). Log P values are measured at a nominal temperature of 25 C. More preferably, hydrophobic means having a log P value greater than about 0.5, even more preferably a log P value greater than about 1, even more preferably a log P value greater than about 1.5, and most preferably a log P value greater than about 2.

Row | Compound | log P [1] | log P (estimate from a similar small molecule) [2]
1 | CCCCOC(C)=O [butyl acetate] | 1.82 | –
2 | poly(lactic acid) | – | approximately 0.2
